Measurements reported in PubChem BioAssay (NCI).
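48-hour exposure; five concentrations; linearly interpolated endpoints. TGI: concentration producing complete growth inhibition.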

Each compound was assayed on SF-295 CNS (assay: growth of human tumour cells (NCI), 48 h).

| SMILES | TGI [µM] |
| --- | --- |
| O=C1CC(Br)c2c(Br)sc(Br)c21 (configuration not stated) | 58.7 |
| CC[C@]12C=CCN3CC[C@@]4(c5cc(Br)c(OC)c([N+](=O)[O-])c5N(C)[C@H]4[C@@](O)(C(=O)OC)[C@@H]1OC(C)=O)[C@@H]32 | > 100 |
| COC(=O)C1C2OC(C)(C)OC2CN1S(=O)(=O)c1ccc(C)cc1 (configuration not stated) | > 100 |
| COc1ccc(CNc2ccn(C3OC(CO)C(O)C3O)c(=O)n2)cc1 (configuration not stated) | > 100 |
| O=C1CSC(c2ccccc2)N1c1nc2cc3sc(N4C(=O)CSC4c4ccccc4)nc3cc2s1 (configuration not stated) | > 100 |
| Cc1nc(N)c(N2CCN(S(N)(=O)=O)CC2)c(=O)[nH]1 | > 100 |
| CC(C)OC(=O)c1ccc(NCC2=CC(=O)C=CC2=O)cc1 | > 83.1 |
| CC(C)C[C@H]1[C@@H](OCc2ccccc2)COS(=O)(=O)N1[C@H](C)c1ccccc1 | > 100 |
| O=c1[nH]c2cccc([N+](=O)[O-])c2c(=O)n1-c1ccc(Cl)cc1 | 12.2 |
| O=C1c2ccccc2-c2nnc(-c3ccc([N+](=O)[O-])cc3)cc21 | > 10 |
| C1C2CC3CC1CC(c1nn4c(C56CC7CC(CC(C7)C5)C6)nnc4s1)(C2)C3 | > 100 |
| Cn1c(-c2cccs2)cc(-c2cccs2)c1-c1cccs1 | > 100 |
| CCSc1nnc(Sc2c3ccccc3nc3ccccc23)s1 | > 100 |
| N=c1c2ccccc2nc2oc3cc([N+](=O)[O-])ccc3n12 | 54.4 |
| CCOC(=O)CC[C@H](N)C(=O)N[C@@H](Cc1ccc(N(CCCl)CCCl)cc1)C(=O)OCC | 14.8 |

The compounds below were run on EKVX NSCLC (assay: growth of human tumour cells (NCI), 48 h).

| SMILES | TGI [µM] |
| --- | --- |
| CCN(CCCl)c1cc(CN(C)C)cc(NC(=O)c2ccc(C(=O)Nc3cc(CN(C)C)cc(N(CC)CCCl)c3)cc2)c1 | 5.58 |
| C=CCN1C(=O)/C(=C/c2ccc(Cl)cc2)N=C1SC/C=C/C | > 100 |
| CC12Nc3c(Cl)cc(Cl)cc3N1C(=O)c1ccccc12 (configuration not stated) | > 100 |
| O=C1C2=Cc3ccccc3CCN2c2ccccc21 | > 94.5 |
| CC(=O)OCC1OC(NC(=S)Nn2c(=O)[nH]c3ccccc3c2=O)C(OC(C)=O)C(OC(C)=O)C1OC(C)=O (configuration not stated) | > 100 |
| CN(CCC(=O)N1CC(CCl)c2ccc([N+](=O)[O-])cc21)CCC(=O)N1CC(CCl)c2ccc([N+](=O)[O-])cc21 (configuration not stated) | 42.7 |
| C[C@]12CC[C@H]3[C@@H](CCC4=CC(=O)CC[C@@H]43)[C@@H]1CC[C@]2(O)C(N)=O | > 100 |
| C/C(Cl)=N/OC(=O)Nc1ccc(F)c([N+](=O)[O-])c1 | 33.1 |
| O=c1[nH]c(=O)n(C/C=C/CO)nc1Br | > 100 |
| O=C1CC(Br)c2c(Br)sc(Br)c21 (configuration not stated) | 39 |
| CC[C@]12C=CCN3CC[C@@]4(c5cc(Br)c(OC)c([N+](=O)[O-])c5N(C)[C@H]4[C@@](O)(C(=O)OC)[C@@H]1OC(C)=O)[C@@H]32 | 91.4 |
| COC(=O)C1C2OC(C)(C)OC2CN1S(=O)(=O)c1ccc(C)cc1 (configuration not stated) | > 100 |
| COc1ccc(CNc2ccn(C3OC(CO)C(O)C3O)c(=O)n2)cc1 (configuration not stated) | > 100 |
| O=C1CSC(c2ccccc2)N1c1nc2cc3sc(N4C(=O)CSC4c4ccccc4)nc3cc2s1 (configuration not stated) | > 100 |
| Cc1nc(N)c(N2CCN(S(N)(=O)=O)CC2)c(=O)[nH]1 | > 100 |
| CC(C)OC(=O)c1ccc(NCC2=CC(=O)C=CC2=O)cc1 | 31.7 |
| CC(C)C[C@H]1[C@@H](OCc2ccccc2)COS(=O)(=O)N1[C@H](C)c1ccccc1 | > 100 |
| O=c1[nH]c2cccc([N+](=O)[O-])c2c(=O)n1-c1ccc(Cl)cc1 | 28 |
| O=C1c2ccccc2-c2nnc(-c3ccc([N+](=O)[O-])cc3)cc21 | > 10 |
| C1C2CC3CC1CC(c1nn4c(C56CC7CC(CC(C7)C5)C6)nnc4s1)(C2)C3 | > 100 |
| Cn1c(-c2cccs2)cc(-c2cccs2)c1-c1cccs1 | > 100 |
| CCSc1nnc(Sc2c3ccccc3nc3ccccc23)s1 | 16.7 |
| N=c1c2ccccc2nc2oc3cc([N+](=O)[O-])ccc3n12 | 89 |
| CCOC(=O)CC[C@H](N)C(=O)N[C@@H](Cc1ccc(N(CCCl)CCCl)cc1)C(=O)OCC | 6.11 |

These compounds were tested on A549 NSCLC (assay: growth of human tumour cells (NCI), 48 h).

| SMILES | TGI [µM] |
| --- | --- |
| CCN(CCCl)c1cc(CN(C)C)cc(NC(=O)c2ccc(C(=O)Nc3cc(CN(C)C)cc(N(CC)CCCl)c3)cc2)c1 | 3.89 |
| C=CCN1C(=O)/C(=C/c2ccc(Cl)cc2)N=C1SC/C=C/C | > 100 |
| CC12Nc3c(Cl)cc(Cl)cc3N1C(=O)c1ccccc12 (configuration not stated) | > 100 |
| O=C1C2=Cc3ccccc3CCN2c2ccccc21 | > 100 |
| CC(=O)OCC1OC(NC(=S)Nn2c(=O)[nH]c3ccccc3c2=O)C(OC(C)=O)C(OC(C)=O)C1OC(C)=O (configuration not stated) | > 100 |
| CN(CCC(=O)N1CC(CCl)c2ccc([N+](=O)[O-])cc21)CCC(=O)N1CC(CCl)c2ccc([N+](=O)[O-])cc21 (configuration not stated) | > 100 |
| C[C@]12CC[C@H]3[C@@H](CCC4=CC(=O)CC[C@@H]43)[C@@H]1CC[C@]2(O)C(N)=O | > 100 |
| C/C(Cl)=N/OC(=O)Nc1ccc(F)c([N+](=O)[O-])c1 | > 58.7 |
| O=c1[nH]c(=O)n(C/C=C/CO)nc1Br | > 100 |
| O=C1CC(Br)c2c(Br)sc(Br)c21 (configuration not stated) | > 100 |
| CC[C@]12C=CCN3CC[C@@]4(c5cc(Br)c(OC)c([N+](=O)[O-])c5N(C)[C@H]4[C@@](O)(C(=O)OC)[C@@H]1OC(C)=O)[C@@H]32 | > 100 |
| COC(=O)C1C2OC(C)(C)OC2CN1S(=O)(=O)c1ccc(C)cc1 (configuration not stated) | > 100 |
| COc1ccc(CNc2ccn(C3OC(CO)C(O)C3O)c(=O)n2)cc1 (configuration not stated) | > 100 |
| O=C1CSC(c2ccccc2)N1c1nc2cc3sc(N4C(=O)CSC4c4ccccc4)nc3cc2s1 (configuration not stated) | > 100 |
| Cc1nc(N)c(N2CCN(S(N)(=O)=O)CC2)c(=O)[nH]1 | > 100 |
| CC(C)OC(=O)c1ccc(NCC2=CC(=O)C=CC2=O)cc1 | > 100 |
| CC(C)C[C@H]1[C@@H](OCc2ccccc2)COS(=O)(=O)N1[C@H](C)c1ccccc1 | > 100 |
| O=c1[nH]c2cccc([N+](=O)[O-])c2c(=O)n1-c1ccc(Cl)cc1 | 36.3 |
